Data: US5891882A, “Benzopyranopyrrole and benzopyranopyridine α-1 adenergic compounds” (priority 1997, dated 1999)
Structures can show the parent of a compound that is named as a salt.

The compounds below were run against T1, α-1A adrenoreceptor (canine prostate smooth muscle) (Canis lupus, UniProt A0A8I3NK63) (assay: Functional antagonism: inhibition of phenylephrine-induced contraction of canine prostate strips). Settings: Schild plot.
T1 construct: antagonism of phenylephrine-induced contraction (pA2, Schild)
T1 sequence (A0A8I3NK63 1-466): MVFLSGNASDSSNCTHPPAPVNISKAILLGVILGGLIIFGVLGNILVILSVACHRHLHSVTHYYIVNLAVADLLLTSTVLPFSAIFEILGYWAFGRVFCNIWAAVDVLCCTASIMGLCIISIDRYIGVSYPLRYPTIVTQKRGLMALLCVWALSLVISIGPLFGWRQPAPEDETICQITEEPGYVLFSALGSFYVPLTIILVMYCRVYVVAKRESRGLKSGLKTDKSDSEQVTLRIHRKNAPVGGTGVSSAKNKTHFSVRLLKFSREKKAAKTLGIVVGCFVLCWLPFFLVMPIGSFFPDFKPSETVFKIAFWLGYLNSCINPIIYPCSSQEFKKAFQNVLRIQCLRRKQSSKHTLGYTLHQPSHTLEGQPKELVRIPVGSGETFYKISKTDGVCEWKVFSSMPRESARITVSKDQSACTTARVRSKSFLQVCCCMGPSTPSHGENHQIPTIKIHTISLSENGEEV
Format: cell-based
Source text: Canine prostate strips were used in vitro as previously described (Hieble, J. P., Boyce, Caine, M., Fed Proc., 45: 2609-2614 (1986)), to determine antagonist potencies phenylephrine-induced contractions.
(§1) Functional assays indicative of pharmacologically defined α-1 adrenoreceptors were used to further characterize compounds. Inhibition of phenylephrine (PE)-induced contraction of canine prostate smooth muscle can be correlated with α-1A adrenoreceptor activation. […] For each of these models, agonist dose response curves were repeated against increasing concentrations of test agent to derive a Schild plot [log ([…]) against log (molarity of test agent)] to determine the pA2.
Canine prostate strips were used in vitro as previously described (Hieble, J. P., Boyce, A. J. and Caine, M., Fed. Proc., 45: 2609-2614 (1986)), to determine antagonist potencies against phenylephrine-induced contractions.
COc1ccc2c(c1)OC[C@H]1CN(CCn3c(=O)[nH]c4c(sc5ccccc54)c3=O)C[C@@H]21.Cl (racemic) [Example 63, 3-[2-((±)-cis-7-Methoxy-1,2,3,3a,4,9b-hexahydro-[1]-benzopyrano[3,4-c]pyrrol-2-yl)ethyl]-[1]benzthieno[3,2-d]pyrimidine-2,4(1H,3H)-dione hydrochloride] was tested, and the “In Vitro Characterization (pA2) Dog Prostate” value (shortened to “In Vitro Characterization”) was 6.65. For COc1ccc2c(c1)OC[C@H]1CN(CCCn3c(=O)[nH]c4c(sc5ccccc54)c3=O)C[C@@H]21.Cl (racemic) [Example 64], the “In Vitro Characterization” value was 6.92. For COc1cccc2c1[C@@H]1CN(CCn3c(=O)[nH]c4c(sc5ccccc54)c3=O)C[C@@H]1CO2.Cl (racemic) [Example 65, 3-[2-((±)-cis-9-Methoxy-1,2,3,3a,4,9b-hexahydro-[1]-benzopyrano[3,4-c]pyrrol-2-yl)ethyl]-[1]-benzthieno[3,2-d]pyrimidine-2,4(1H,3H)-dione hydrochloride], the “In Vitro Characterization” value was 7.76. With COc1cccc2c1[C@@H]1CN(CCCn3c(=O)[nH]c4c(sc5ccccc54)c3=O)C[C@@H]1CO2.Cl (racemic) [Example 66, 3-[3-((±)-cis-9-Methoxy-1,2,3,3a,4,9b-hexahydro-[1]-benzopyrano[3,4-c]pyrrol-2-yl)propyl]-[1]-benzthieno[3,2-d]pyrimidine-2,4(1H,3H)-dione hydrochloride] the “In Vitro Characterization” value was 7.48. With COc1cccc2c1OC[C@H]1CN(CCCn3c(=O)[nH]c4c(sc5ccccc54)c3=O)C[C@@H]21.Cl (racemic) [Example 68, 3-[3-((±)-cis-6-Methoxy-1,2,3,3a,4,9b-hexahydro-[1]-benzopyrano[3,4-c]pyrrol-2-yl)propyl]-[1]-benzthieno[3,2-d]pyrimidine-2,4(1H,3H)-dione hydrochloride] the “In Vitro Characterization” value was 7.02. In the case of Cl.O=c1[nH]c2c(sc3ccccc32)c(=O)n1CCN1C[C@@H]2COc3ccccc3[C@@H]2C1 (racemic) [Example 69, 3-[2-((±)-cis-1,2,3,3a,4,9b-hexahydro-[1]-benzopyrano[3,4-c]pyrrol-2-yl)ethyl]-[1]-benzthieno[3,2-d]pyrimidine-2,4(1H,3H)-dione hydrochloride], the “In Vitro Characterization” value is reported as 6.91. In the case of COc1cccc2c1[C@H]1CN(CCCCn3c(=O)[nH]c4c(sc5nccnc54)c3=O)C[C@@H]1CO2.Cl.Cl (racemic) [Example 74, 3-[4-((±)-trans-9-Methoxy-1,2,3,3a,4,9b-hexahydro-[1]-benzopyrano[3,4-c]pyrrol-2-yl)butyl]-pyrazino[2',3':4,5]thieno[3,2-d]pyrimidine-2,4(1H,3H)-dione dihydrochloride], the “In Vitro Characterization” value is reported as 9.03. In the case of COc1cccc2c1[C@@H]1CCN(CCCCn3c(=O)[nH]c4c(sc5ncccc54)c3=O)C[C@H]1CO2 (relative stereo) [Example 85, 3-[4-((±)-trans-10-Methoxy-1,3,4,4a,5,10b-hexahydro-2H-[1]-benzopyrano[3,4-c]pyrido-3-yl)butyl]-pyrido[3',2':4,5]thieno[3,2-d]pyrimidine-2,4(1H,3H)-dione dihydrochloride], the “In Vitro Characterization” value is reported as 8.6. With COc1cccc2c1[C@@H]1CN(CCCCn3c(=O)[nH]c4c(sc5cccnc54)c3=O)C[C@@H]1CO2 [Example 1, 3-[4-((3aR,9bR)-cis-9-Methoxy-1,2,3,3a,4,9b-hexahydro-[1]-benzopyrano[3,4-c]pyrrol-2-yl)butyl]-pyrido[2',3':4,5]thieno[3,2-d]pyrimidine-2,4(1H,3H)-dione hydrochloride] the “In Vitro Characterization” value was 8.69.

These compounds were tested against T2, α-1 Adrenoceptors (Rat Aorta) (Rattus norvegicus, UniProt P23944) (assay: Functional antagonism at α-1 adrenoceptors, rat aorta). Settings: read-out: In Vitro Characterization (pA2) Rat Aorta (converted).
T2 construct: Rat Aorta; from tissue; host or cells: rat aorta
T2 sequence (P23944 1-561): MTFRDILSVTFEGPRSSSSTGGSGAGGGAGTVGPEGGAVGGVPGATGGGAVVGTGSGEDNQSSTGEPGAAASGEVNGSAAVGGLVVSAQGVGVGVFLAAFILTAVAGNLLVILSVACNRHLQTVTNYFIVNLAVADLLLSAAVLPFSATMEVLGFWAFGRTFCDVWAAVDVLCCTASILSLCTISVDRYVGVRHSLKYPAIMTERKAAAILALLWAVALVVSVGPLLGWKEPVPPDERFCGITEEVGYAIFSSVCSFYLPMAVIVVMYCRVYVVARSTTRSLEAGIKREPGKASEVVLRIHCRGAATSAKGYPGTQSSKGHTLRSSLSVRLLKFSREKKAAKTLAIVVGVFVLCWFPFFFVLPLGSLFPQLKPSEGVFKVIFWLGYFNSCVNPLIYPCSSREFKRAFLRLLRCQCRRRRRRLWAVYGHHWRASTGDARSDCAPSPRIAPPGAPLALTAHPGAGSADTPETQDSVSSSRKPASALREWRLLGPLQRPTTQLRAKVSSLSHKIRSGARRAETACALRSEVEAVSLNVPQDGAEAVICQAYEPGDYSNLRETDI
Format: cell-based
Source text: as §1
Compound COc1cccc2c1[C@@H]1CN(CCCCn3c(=O)[nH]c4c(sc5c(OC)ccnc54)c3=O)C[C@H]1CO2 [Example 17, 3-[4-((3aS,9bR)-trans-9-Methoxy-1,2,3,3a,4,9b-hexahydro-[1]-benzopyrano[3,4-c]pyrrol-2-yl)butyl]-6-methoxy-pyrido[2',3':4,51thieno[3,2-d]pyrimidine-2,4(1H,3H)-dione dihydrochloride] has a Kb of 0.631 nM. COc1cccc2c1[C@@H]1CN(CCCCn3c(=O)[nH]c4c(sc5c(OC)ccnc54)c3=O)C[C@@H]1CO2 [Example 18, 3-[4-((3aR,9bR)-cis-9-Methoxy-1,2,3,3a,4,9b-hexahydro-[1]-benzopyrano[3.4-c]pyrrol-2-yl)butyl]-6-methoxy-pyrido[2',3':4,51thieno[3,2-d]pyrimidine-2,4(1H,3H)-dione dihydrochloride] was tested, and the Kb was 0.457 nM. For COc1cccc2c1[C@@H]1CN(CCCCn3c(=O)[nH]c4c(sc5ccc(Cl)nc54)c3=O)C[C@H]1CO2 [Example 25, 3-[4-((3aS,9bR)-trans-9-Methoxy-1,2,3,3a,4,9b-hexahydro-[1]-benzopyrano[3,4-c]pyrrol-2-yl)butyl]-8-chloro-pyrido[2',3':4,5]thieno[3,2-d]pyrimidine-2,4(1H,3H)-dione dihydrochloride], the Kb was 0.0138 nM. With COc1cccc2c1[C@@H]1CN(CCCCn3c(=O)[nH]c4c(sc5cnccc54)c3=O)C[C@@H]1CO2 [Example 29, 3-[4-((3aR,9bR)-cis-9-Methoxy-1,2,3,3a,4,9b-hexahydro-[1]-benzopyrano[3,4-c]pyrrol-2-yl)butyl]-pyrido[4',3':4,5]thieno[3,2-d]pyrimidine-2,4(1H,3H)-dione hydrochloride] the Kb was 0.501 nM. COc1cnc2sc3c(=O)n(CCCCN4C[C@@H]5COc6cccc(OC)c6[C@@H]5C4)c(=O)[nH]c3c2n1 [Example 31, hydrochloride] showed a Kb of 0.794 nM. Work on COc1cccc2c1[C@@H]1CN(CCCCn3c(=O)[nH]c4c(sc5nc(C)ccc54)c3=O)C[C@@H]1CO2 [Example 35, hydrochloride] yielded a Kb of 0.741 nM. COc1cccc2c1[C@@H]1CN(CCCCn3c(=O)[nH]c4c(sc5nccc(OC)c54)c3=O)C[C@@H]1CO2 [Example 36, 3-[4-((3aR,9bR)-cis-9-Methoxy-1,2,3,3a,4,9b-hexahydro-[1]-benzopyrano[3,4-c]pyrrol-2-yl)butyl]-9-methoxy-pyrido[2',3':4,5]thieno[3,2-d]pyrimidine-2,4(1H,3H)-dione hydrochloride] showed a Kb of 0.372 nM. Work on COc1cccc2c1[C@@H]1CN(CCCCn3c(=O)[nH]c4c(sc5ccc(Cl)nc54)c3=O)C[C@@H]1CO2 [Example 37, 3-[4((3aR,9bR)-cis-9-Methoxy-1,2,3,3a,4,9b-hexahydro-[1]-benzopyrano[3,4-c]pyrrol-2-yl)butyl]-8-chloro-pyrido[2',3':4,5]thieno[3,2-d]pyrimidine-2,4(1H,3H)-dione hydrochloride] yielded a Kb of 0.229 nM. Compound COc1cccc2c1[C@@H]1CN(CCCCn3c(=O)[nH]c4c(sc5cc(Cl)cnc54)c3=O)C[C@@H]1CO2 [Example 38, 3-[4((3aR,9bR)-cis-9-Methoxy-1,2,3,3a,4,9b-hexahydro-[1]-benzopyrano[3,4-c]pyrrol-2-yl)butyl]-7-chloro-pyrido[2',3':4,5]thieno[3,2-d]pyrimidine-2,4(1H,3H)-dione hydrochloride] has a Kb of 1.15 nM. Work on COc1cccc2c1[C@@H]1CN(CCCCn3c(=O)[nH]c4c(sc5nc(-c6ccccc6)cnc54)c3=O)C[C@@H]1CO2 [Example 40, 3-[4-((3aR,9bR)-cis-9-Methoxy-1,2,3,3a,4,9b-hexahydro-[1]-benzopyrano[3,4-c]pyrrol-2-yl)butyl]-7-phenyl-pyrazino[2',3':4,5]thieno[3,2-d]pyrimidine-2,4(1H,3H)-dione hydrochloride] yielded a Kb of 4.47 nM. COc1cccc2c1[C@@H]1CN(CCCCn3c(=O)[nH]c4c(sc5ccc(OC(C)C)nc54)c3=O)C[C@H]1CO2 [Example 51, 3-[4-((3aS,9bR)-trans-9-Methoxy-1,2,3,3a,4,9b-hexahydro-[1]-benzopyrano[3,4-c]pyrrol-2-yl)butyl]-8-isopropoxy-pyrido[2',3':4,5]thieno[3,2-d]pyrimidine-2,4(1H,3H)-dione hydrochloride] showed a Kb of 0.182 nM.
